Test results published in article PMC5119973 (Cancer Medicine, 2016).

Assays:
[1] = target: T1, FLT3^D835H (Homo sapiens, UniProt P36888, D835H); experiment: KINOMEscan active-site competitive binding assay
T1 construct: purchased DiscoveRx

[2] = target: T2, FLT3^K663Q (Homo sapiens, UniProt P36888, K663Q); experiment: KINOMEscan active-site competitive binding assay
T2 construct: purchased DiscoveRx

[3] = system: BaF/3 cells expressing an imatinib‐resistant mutant KIT (557‐558del; T670I); experiment: In vitro proliferation, BaF/3 cells expressing imatinib‐resistant mutant KIT; format: cell-based; conditions: unpubl. data

Compound: CNC(=O)c1cc(Oc2ccc(NC(=O)Nc3ccc(Cl)c(C(F)(F)F)c3)c(F)c2)cc[n+]1[O-] [M‐2]
- Kd [1]: 120 nM

Compound: NC(=O)c1cc(Oc2ccc(NC(=O)Nc3ccc(Cl)c(C(F)(F)F)c3)c(F)c2)cc[n+]1[O-] [M‐5]
- Kd [2]: 5.5 nM

Compound: CNC(=O)c1cc(Oc2ccc(NC(=O)Nc3ccc(Cl)c(C(F)(F)F)c3)c(F)c2)ccn1 [Regorafenib, reference compound]
- Inhibition of proliferation [3]: potent inhibition
